Results reported in patent publication US20170296621A1, “NOD2-DEPENDENT PATHWAY OF CYTOPROTECTION OF STEM CELLS” (INSTITUT PASTEUR, priority 2012, published 2017).
Structures can show the parent of a compound that is named as a salt.

Columns and labels:
[1] = tested on: crypts from Nod1 KO mice; assay: Organoid formation from crypts of Nod1 KO mice upon MAMP stimulation; assay type: cell-based
Description: FIG. 4 illustrates the fold change in number of organoids, formed from extracted crypts, from mice knocked out for Nod1 or Nod2 genes, upon different MAMPs stimulation conditions. By definition, the fold change of the untreated organoids is set to 1, and the fold changes upon the various stimulation conditions applied are by reference to the non-stimulated organoids.
Intestinal crypts were obtained following a protocol already described (Sato et al., 2009). After isolation small intestines were isolated, flushed with cold PBS followed by 0.3% bleach and again PBS, opened longitudinally and the villi were removed. […] After severals vigourous shakings the crypts, released in the supernatant, were passed through a cell strainer 70 μm (BD Falcon), spun down at 800 rpm, resuspended in DMEM and counted. […]

[2] = tested on: intestinal stem cells in crypts; assay: Organoid formation under induced stress (doxorubicin or H2O2); assay type: cell-based, mice; conditions: 1 μM; after 4 days of treatment
Protocol: By definition, the fold change of the untreated organoids is set to 1 in the absence of any additional stress, and the fold changes upon the various stimulation or stress conditions applied are by reference to the non-stimulated non-stressed organoids.
Doxorubicin (1 μM) or H2O2 (200 μM) are added during the embedding of the crypts in the matrigel.
Intestinal crypts were obtained following a protocol already described (Sato et al., 2009). After isolation small intestines were isolated, flushed with cold PBS followed by 0.3% bleach and again PBS, opened longitudinally and the villi were removed. The tissues were cutted in small pieces, washed in 5 mM PBS/EDTA for 5 min, and subsequently incubated in fresh 5 mM PBS/EDTA for 30 min on ice. After severals vigourous shakings the crypts, released in the supernatant, were passed through a cell strainer 70 μm (BD Falcon), spun down at 800 rpm, resuspended in DMEM and counted. The volume corresponding to 500 crypts was distributed in two tubes per condition, and spun down again. […] The crypts were embedded in 50 μl of growth factor reduced matrigel (BD Biosciences) in a 24-well plates, incubate at 37° C. 20 min and overload with 500 μl of crypts medium (CM) as described previously (Sato et al 2009). […]

[3] = tested on: intestinal crypts; assay: Caspase-3 positive crypts in doxorubicin-treated mice; assay type: in vivo; conditions: intraperitoneal, 6 hours
Protocol: FIG. 11 depicts the percentage of caspase-3 positive crypts in different conditions. The results are obtained after 6 hours.
Line 1: WT, non-treated mice. Line 2: Nod2 KO mice, non-treated. Line 3: WT mice, treated with doxorubicin during 6 hours. Line 4: Nod2 KO mice, treated with doxorubicin during 6 hours. It can be observed that the absence of Nod2 induced more death in the crypts.
B6.129P2-Lgr5^tm1(cre/ESR1)Cle/mice (Lgr5-EGFP) (Barker et al., 2007) were purchased from The Jackson Laboratories. Card4/Nod1 (Nod1 KO) mice were generated by Millenium pharmaceuticals Boston. Card15/Nod2 deficient C57BL/6J (Nod2 KO) (Barreau et al., 2007) were provided by J.-P. Hugot (Hôpital Robert Debré, Paris, France). All mice were kept in specific pathogen-free conditions. When indicated the mice were injected intraperitoneally with 200 μg of EdU (Invitrogen) 2 hrs prior to sacrifice or with 10 mg/kg doxorubicin hydrochloride (Sigma) and sacrificed at indicated time points. […]
Doxorubicin in vivo. […] The percentage of crypts presenting at least one caspase3-positve cell was counted. […] To evaluate if upon doxorubicin treatment the proliferation index was affected, the number of EdU positive cells per crypts was counted and the percentage versus the total number of cells in the crypts was calculated.

[4] = tested on: intestinal crypts; assay: Proliferation index and regenerative crypts after doxorubicin injection; assay type: in vivo, mice; conditions: for Percentage of regenerative crypts / Relative size of crypts: 72 h after injection; for Relative size of crypts: crypt width×crypt height
Protocol: FIG. 13 illustrates the percentage of EdU-positive cells per crypt, in wild-type or Nod2 KO mice, after 2 hours of EdU (5-ethynyl-2-deoxyuridine) treatment.
For the analysis of proliferation in the tissue, 10 mg/kg EdU were injected IP and the animals were sacrificed after 2 h. The Click-iT® EdU Alexa Fluor® 488 Imaging Kit was used on paraffin slides that were processed according to the manufacturer's instructions.
The proliferation index was calculated as a percentage of EdU positive cells over the total number of cells in each crypt. Data from five mice each group were obtained and at least 50 crypts per section were examined for all histological parameters. A regenerative crypt was defined as a crypt containing more than 10 EdU positive cells per crypt. Relative crypt size was determined as crypt width×crypt height.
In order to evaluate the capacity of stem cells to survive and repair the damaged tissue upon doxorubicin-treatment, the inventors used a modified clonogenic microcolony assay (Tustison et al). At 72 h wt mice presented higher percentage of regenerative/surviving crypts than in Nod2 KO mice and this was associated with a bigger size of the crypts (Table 1).

[5] = tested on: intestinal crypts; assay: Organoid formation from isolated intestinal crypts upon MAMP stimulation; assay type: cell-based, mice; conditions: wt crypts; 10 μg/ml
Protocol: Crypts were stimulated with soluble sonicated peptidoglycan (PGN), muramyl-dipeptide (MDP), muramyl-tetrapeptide (Tetra-dap), Escherichia coli lipopolysaccharide (LPS) (each at 10 μg/ml), 10 ng/ml flagellin (Fla), 500 ng/ml synthetic lipoprotein (Pam3CSK), or 1 μM unmethylated CpG dinucleotides (CpG). The average number of non-stimulated organoids (control) is around 50, and the fold change value of the control is fixed to 1. The fold change upon the various MAMPs applied is thus by reference to non-stimulated organoids (Ctrl).
Intestinal crypts were obtained following a protocol already described (Sato et al., 2009). After isolation small intestines were isolated, flushed with cold PBS followed by 0.3% bleach and again PBS, opened longitudinally and the villi were removed. The tissues were cutted in small pieces, washed in 5 mM PBS/EDTA for 5 min, and subsequently incubated in fresh 5 mM PBS/EDTA for 30 min on ice. After severals vigourous shakings the crypts, released in the supernatant, were passed through a cell strainer 70 μm (BD Falcon), spun down at 800 rpm, resuspended in DMEM and counted. The volume corresponding to 500 crypts was distributed in two tubes per condition, and spun down again. […] The crypts were embedded in 50 μl of growth factor reduced matrigel (BD Biosciences) in a 24-well plates, incubate at 37° C. […]

[6] = tested on: wt stem cells (Lgr5-EGFP); assay: Single cells stimulation: organoids from sorted wt stem cells; assay type: cell-based, mice; conditions: wt stem cells alone; 500 cells per well
Protocol: FIG. 8 depicts the average number of organoids formed per well, depending on the cell types seeded in the well, without stimulation, or under stimulation with MDP. 500 cells were seeded per well in a 96-wells-plate.
Isolated crypts from Lgr5-EGFP mice or Nod2KO mice were incubated in HBSS w/o Ca^+2 and Mg^2+ supplemented with 0.3 U/ml Dispase (BD Biosciences), 0.8 U/ml DNase (Sigma) and 10 μM Y-27632 (Sigma) for 30 min at 37° C.
Dissociated cells were washed with 1% PBS/BSA and stained with CD24-APC antibody (clone M1/69 BioLegend) and EpCam Pe-Cy7 (clone G8.8 BioLegend) for 20 min at 4° C., resuspended in crypts medium supplemented with 1 μM N-acetyl-L-cystein, 10 μM Jag-1 (Anaspec) and 10 μM Y-27632 (single cells medium-SCM) and filtered with a 20 μm mesh and analyzed with MoFlo legacy (Beckman Coulter).
Singlets of viable epithelial cells were gated by negative staining for propidium iodide and positive staining for EpCam. The stem cells and Paneth cells were isolated respectively as GFP^hi+ population, and GFP^−CD24^hi+SSC^hi population.
Stem cells and Paneth cells derived from Lgr5-EGFP or Nod2KO mice were cultured alone or in different combinations. 500 cells from each condition were re-suspended in 100 μl of single cells medium with or without MAMPs and, when indicated, with 100 ng/ml wnt3 (R&D), seeded in 96-wells round-bottom plates and incubated on ice for 15 min. […]

Molecule: CC(=O)NC1C(O)OC(CO)C(O)C1OC(C)C(=O)NC(C)C(=O)NC(CCC(=O)O)C(N)=O (stereo not shown) [MDP-ctrl]
- number of organoids compared with control (in words) [1]: No difference was observed

Molecule: COc1cccc2c1C(=O)c1c(O)c3c(c(O)c1C2=O)C[C@@](O)(C(=O)CO)C[C@@H]3O[C@H]1C[C@H](N)[C@H](O)[C@H](C)O1 [doxorubicin, doxorubicin hydrochloride]
- less organoids after treatment [2]: 50%
- percentage of crypts with apoptotic (caspase-3 positive) cells ([3]; Nod2 KO mice): 54%
- percentage of crypts with apoptotic (caspase-3 positive) cells ([3]; wt mice): 30%
- Percentage of regenerative crypts ([4]; Nod2 KO mice): 33.9 ± 9.4 %
- Relative size of crypts ([4]; Nod2 KO mice): 2538 ± 180
- proliferation index in crypts (in words) ([4]; Nod2 KO mice, following days): low rate of proliferation
- proliferation index in crypts (in words) ([4]; both wt and Nod2 KO mice, 6h until 24 h after injection): decrease in the rate of proliferation
- proliferation index in crypts (in words) ([4]; wt mice, 48 h until 72 h): reaching almost the same rate observed in the non-treated mice
- Percentage of regenerative crypts ([4]; wt mice): 59.9 ± 6.4%
- Relative size of crypts ([4]; wt mice): 3231 ± 105

Molecule: CC(=O)NC1C(O)OC(CO)C(O)C1OC(C)C(=O)NC(C)C(=O)NC(CCC(=O)NC(CCCC(N)C(=O)O)C(=O)NC(C)C(=O)O)C(=O)O (stereo not shown) [Tetra-dap, MurNAc-Tetra(DAP)]
- number of organoids compared with non-stimulated (in words) [5]: did not observe any differences and not

B1: wnt ligand: 100 ng/ml wnt3 (R&D) added to stem cells (protein, UniProt P56703 22-355, looked up)
Proto-oncogene Wnt-3: GYPIWWSLALGQQYTSLGSQPLLCGSIPGLVPKQLRFCRNYIEIMPSVAEGVKLGIQECQHQFRGRRWNCTTIDDSLAIFGPVLDKATRESAFVHAIASAGVAFAVTRSCAEGTSTICGCDSHHKGPPGEGWKWGGCSEDADFGVLVSREFADARENRPDARSAMNKHNNEAGRTTILDHMHLKCKCHGLSGSCEVKTCWWAQPDFRAIGDFLKDKYDSASEMVVEKHRESRGWVETLRAKYSLFKPPTERDLVYYENSPNFCEPNPETGSFGTRDRTCNVTSHGIDGCDLLCCGRGHNTRTEKRKEKCHCIFHWCCYVSCQECIRIYDVHTCK
- average of organoids per well [6]: around 3 organoids per well
